Assays:
human OATP1B1 = target: T1, human OATP1B1 (Homo sapiens, UniProt Q9Y6L6); assay: OATP1B1 inhibition assay (HEK293 cells over-expressing human OATP1B1, substrate estradiol 17-β-D-glucuronide); format: cell-based; settings: 30 min pre-incubation, 10 min coincubation with estradiol 17-β-D-glucuronide
T1 sequence (Q9Y6L6 1-691): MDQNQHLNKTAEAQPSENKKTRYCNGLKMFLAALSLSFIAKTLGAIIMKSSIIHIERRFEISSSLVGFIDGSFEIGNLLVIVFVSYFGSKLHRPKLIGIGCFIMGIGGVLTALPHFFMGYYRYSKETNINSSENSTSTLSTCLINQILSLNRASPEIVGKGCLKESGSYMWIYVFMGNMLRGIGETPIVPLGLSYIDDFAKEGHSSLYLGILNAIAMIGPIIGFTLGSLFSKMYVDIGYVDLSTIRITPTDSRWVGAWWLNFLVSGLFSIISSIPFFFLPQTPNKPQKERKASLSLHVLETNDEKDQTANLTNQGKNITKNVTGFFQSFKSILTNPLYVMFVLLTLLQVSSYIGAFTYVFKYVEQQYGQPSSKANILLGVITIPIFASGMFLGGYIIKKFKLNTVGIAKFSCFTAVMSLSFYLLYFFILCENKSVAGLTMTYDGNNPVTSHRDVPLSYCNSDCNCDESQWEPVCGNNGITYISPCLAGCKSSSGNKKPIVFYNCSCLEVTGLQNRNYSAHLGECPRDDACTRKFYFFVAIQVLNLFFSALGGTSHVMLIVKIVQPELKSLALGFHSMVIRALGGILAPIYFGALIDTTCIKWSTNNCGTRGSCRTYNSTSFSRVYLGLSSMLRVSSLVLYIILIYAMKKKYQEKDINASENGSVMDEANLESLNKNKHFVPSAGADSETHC
Experimental: HEK293 cells over-expressing human OATP1B1 were used for determining the inhibitory effect of compounds of the application on OATP1B1-mediated transportation. Cells were seeded at a density of 400,000 cells per well in 24-well plates. When reaching confluence of 80˜90%, cells were washed with pre-warmed assay buffer and then pre-incubated with serially diluted test compounds or negative control (NC) or positive inhibitor (PC, Rifampicin) for 30 min, followed by coincubation with the same test compound and OATP1B1 substrate estradiol 17-β-D-glucuronide for 10 min. Cells were washed with pre-cooled buffer, and lysed by freeze-thaw cycles. After extraction by mixture of […] of methanol, the substrate concentration was determined by LC-MS/MS, and protein concentration was determined by BCA method. The substrate transport velocity U is calculated as U=Clysate/(P*T), where Clysate is substrate concentration in lysate, P is protein concentration in lysate, and T is incubation time. Relative transport activity Y is calculated as Y=UTA/UNC. The IC50 value of the tested compounds was calculated by fitting Y to compound concentration using a 4-parameter non-linear regression routine in Prism.

[1] = target: (Homo sapiens, UniProt P43220); assay: h-GLP-1 activity assay (cAMP HTRF, HEK293 cells with stable expression of human GLP-1); format: cell-based; settings: relative EC50, 10 nM human GLP-1 set as 100% response, 30 min at 37° C.
Sequence of (Homo sapiens, UniProt P43220) (P43220 24-463): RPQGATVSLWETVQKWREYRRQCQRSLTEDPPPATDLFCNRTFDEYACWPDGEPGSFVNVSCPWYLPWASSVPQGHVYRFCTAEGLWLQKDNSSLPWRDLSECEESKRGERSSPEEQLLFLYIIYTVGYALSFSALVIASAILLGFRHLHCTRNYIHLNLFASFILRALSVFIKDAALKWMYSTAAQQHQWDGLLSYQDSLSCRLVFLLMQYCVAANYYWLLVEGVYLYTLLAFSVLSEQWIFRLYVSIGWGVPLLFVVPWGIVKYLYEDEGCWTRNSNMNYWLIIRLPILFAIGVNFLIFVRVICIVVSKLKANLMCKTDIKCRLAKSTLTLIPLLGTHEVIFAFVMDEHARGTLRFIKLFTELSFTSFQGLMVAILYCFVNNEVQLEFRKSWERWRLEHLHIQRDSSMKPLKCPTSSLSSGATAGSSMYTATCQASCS
In short: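 cAMP accumulation (HTRF, 665/615 nm, interpolated from standard curve) after 30 min, 37 °C compound treatment of stable human GLP-1 HEK293 cells with 0.5 mM IBMX. EC50 by 4-parameter regression, reported relative to 10 nM GLP-1 (7-37) as full response.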

[2] = Pharmacokinetics after oral gavage in fasted SD rats; format: in vivo; settings: rat, 5 mg/kg, plasma
Experimental: Compounds of the present application were formulated in 10% DMSO/10%/Cremophor EL/15% PEG400/65% 100 mM Glycine-NaOH pH 10, and administered via oral gavage (P0) at the dosages of 5 or 10 mg per kilogram body weight in fasted SD rats. Plasma samples were collected at 0.25, 0.5, 1, 2, 4, 6, 8, and 24 hours post dosing. Compound concentration was determined by LC-MS and pharmacokinetics parameters were calculated by WinNonlin 8.2 using Non-Compartmental Analysis model.

IC50 (human OATP1B1) [nM]	EC50 [1] [nM]	AUC [2] [ng·h/mL]	Cmax [2] [ng/mL]	bioavailability [2] [%]	SMILES
> 1000	< 20				Cc1cc(-n2nc3c(c2-n2ccn(-c4ccc5c(cnn5C)c4F)c2=O)[C@H](C)N(C(=O)c2cc4cc([C@@H]5CCOC(C)(C)C5)ccn4c2C2(c4noc(=O)[nH]4)CC2)CC3)cc(C)c1F (single isomer, unassigned) [Compound 10]
> 1000	< 20	3000	572	26	Cc1cc(-n2nc3c(c2-n2ccn(-c4ccc5c(cnn5C)c4F)c2=O)[C@H](C)N(C(=O)c2cn4cc([C@@H]5CCOC(C)(C)C5)ccc4c2C2(c4noc(=O)[nH]4)CC2)CC3)cc(C)c1F (single isomer, unassigned) [Compound 19]
> 1000	< 20	10200	1700	90	C[C@H]1c2c(nn(-c3ccc(F)c(C4CC4)c3)c2-n2ccn(-c3ccc4c(cnn4C)c3F)c2=O)CCN1C(=O)c1cc2cc([C@@H]3CCOC(C)(C)C3)ccn2c1C1(c2noc(=O)[nH]2)CC1 (single isomer, unassigned) [Compound 73]
> 1000	< 20	5320	962	30	C[C@H]1c2c(nn(-c3ccc(F)c(C4CC4)c3)c2-n2ccn(-c3ccc4c(cnn4C)c3F)c2=O)CCN1C(=O)c1cn2cc([C@@H]3CCOC(C)(C)C3)ccc2c1C1(c2noc(=O)[nH]2)CC1 (single isomer, unassigned) [Compound 76]
> 1000	< 20	3340	1370	59	C[C@H]1c2c(nn(-c3ccc(F)c(C4CC4)c3)c2-n2ccn(-c3ccc4c(cnn4C)c3F)c2=O)CCN1C(=O)c1cn2nc([C@@H]3CCOC(C)(C)C3)ccc2c1C1(c2noc(=O)[nH]2)CC1 (single isomer, unassigned) [Compound 90]
> 1000	< 20	2660	738	22	C[C@H]1c2c(nn(-c3ccc(F)c(C4CC4)c3)c2-n2ccn(-c3ccc4c(cnn4C)c3F)c2=O)CCN1C(=O)c1cn2cc([C@H]3CCOC(C)(C)C3)cc(F)c2c1C1(c2noc(=O)[nH]2)CC1 (single isomer, unassigned) [Compound 91]
